The values below come from patent US20110190351A1, “Benzoimidazole Derivatives and Glycogen Synthase Kinase-3 Beta Inhibitors Containing the Same” (Oncotherapy Science, Inc., priority 2008, published 2011).

The experiment deals with T1, GSK3beta (Homo sapiens, UniProt P49841).
T1 construct: purchased Invitrogen
T1 sequence (P49841 whole entry): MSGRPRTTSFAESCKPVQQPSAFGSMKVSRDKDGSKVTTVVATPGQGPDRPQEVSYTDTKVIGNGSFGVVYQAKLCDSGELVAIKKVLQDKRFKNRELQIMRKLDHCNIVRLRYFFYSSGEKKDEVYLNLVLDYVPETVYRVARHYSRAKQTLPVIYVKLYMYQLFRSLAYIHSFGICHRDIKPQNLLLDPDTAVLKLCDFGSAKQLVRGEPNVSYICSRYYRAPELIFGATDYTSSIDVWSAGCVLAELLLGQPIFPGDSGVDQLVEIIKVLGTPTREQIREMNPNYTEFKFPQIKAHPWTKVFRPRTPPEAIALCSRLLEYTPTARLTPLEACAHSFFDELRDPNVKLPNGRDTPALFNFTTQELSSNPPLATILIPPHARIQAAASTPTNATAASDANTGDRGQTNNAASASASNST
Briefly: Z'-LYTE kinase assay (FRET, SER/THR 9 peptide). In kind it is biochemical. As to conditions: 0.04 ng/mcl GSKbeta (Invitrogen), 2 mcM SER/THR 9 peptide, 15 mcM ATP, 1 hour at room temperature, 1% DMSO. The procedure: GSK3beta activity was measured in the presence or absence of compounds using Z′-LYTE kinase assay (Rodems S M, et al., Assay Drug Dev Technol. 1: 9-19, 2002.) kit with SER/THR 9 peptide (Invitrogen) following the manufacturer's instruction. The Z′-LYTE kinase assay kit employs a fluorescence resonance energy transfer (FRET) between two fluorophores, coumarin and fluorescein, attached to each end of a substrate peptide.
Test compounds were dissolved in DMSO at 12.5 mM and then serially diluted as the DMSO concentration in the assays to be 1%. The serially diluted compounds, 0.04 ng/mcl GSKbeta (Invitrogen) and 2 mcM SER/THR 9 peptide were reacted in a reaction buffer (50 mM HEPES pH 7.5, 0.01% Brij-35, 10 mM MgCl2, 1 mM EGTA, 15 mcM ATP). For 0% phosphorylation control, ATP was omitted from the reaction mixture. For 100% phosphorylation control, SER/THR 9 phosphopeptide was used in place of the SER/THR 9 peptide. Following 1 hour incubation at room temperature, the reaction was stopped by the addition of half assay volume of development solution and further incubated for 1 hour at room temperature. After adding the half assay volume of stop reagent, emission signals of coumarin and fluorescein were measured by Wallac EnVision 2103 multilabel reader (PerkinElmer). The extent of phosphorylation was determined according to the 0% and 100% phosphorylation control samples using the following equation:
C100%=coumarin emission signal of the 100% phosphorylation control C0%=coumarin emission signal of the 0% phosphorylation control F100%=fluorescein emission signal of the 100% phosphorylation control F0%=fluorescein emission signal of the 0% phosphorylation control
IC50 values were calculated by nonlinear four parameter fit using SigmaPlot, version 10.0 (Systat Software, Inc.).
The IC50 is the concentration that inhibits the measured activity by half. A low value points to higher potency. `NS(=O)(=O)c1ccc(CNC(=O)c2ccc(O)c3[nH]c(-c4cccs4)nc23)cc1` [Example 8, 7-Hydroxy-N-(4-sulfamoylbenzyl)-2-(thiophen-2-yl)-1H-benzo[d]imidazole-4-carboxamide] returned an IC50 of 52 nM.
Next, `O=C(NCCNc1ccccn1)c1ccc(O)c2[nH]c(-c3cccs3)nc12` [Example 11, 7-Hydroxy-N-[2-(pyridin-2-ylamino)ethyl]-2-(thiophen-2-yl)-1H-benzo[d]imidazole-4-carboxamide]: 130 nM; `O=C(NCCCNCCO)c1ccc(O)c2[nH]c(-c3cccs3)nc12` [Example 12, 7-Hydroxy-N-[3-(2-hydroxyethylamino)propyl]-2-(thiophen-2-yl)-1H-benzo[d]imidazole-4-carboxamide]: 180 nM; `COC(=O)C(CO)NC(=O)c1ccc(O)c2[nH]c(-c3cccs3)nc12` (stereo not drawn) [Example 15, Methyl 3-Hydroxy-2-[7-hydroxy-2-(thiophen-2-yl)-1H-benzo[d]imidazole-4-carboxamido]propanoate]: 22 nM.
Next, `O=C(N[C@@H](CO)Cc1c[nH]cn1)c1ccc(O)c2[nH]c(-c3cccs3)nc12` [Example 17, (R)-7-Hydroxy-N-[1-hydroxy-3-(1H-imidazol-4-yl)propan-2-yl]-2-(thiophen-2-yl)-1H-benzo[d]imidazole-4-carboxamide]: 170 nM.
With `NS(=O)(=O)c1ccc(CCNC(=O)c2ccc(O)c3[nH]c(-c4cccs4)nc23)cc1` [Example 21, 7-Hydroxy-N-(4-sulfamoylphenethyl)-2-(thiophen-2-yl)-1H-benzo[d]imidazole-4-carboxamide] the figure was 280 nM.
Molecule `Cn1cncc1CCNC(=O)c1ccc(O)c2[nH]c(-c3cccs3)nc12` [Example 35, 7-Hydroxy-N-[2-(1-methyl-1H-imidazol-5-yl)ethyl]-2-(thiophen-2-yl)-1H-benzo[d]imidazole-4-carboxamide] registered an IC50 of 130 nM.
Next, `CN(C)CCNC(=O)c1ccc(O)c2[nH]c(-c3cccs3)nc12` [Example 36, N-[2-(dimethylamino)ethyl]-7-hydroxy-2-(thiophen-2-yl)-1H-benzo[d]imidazole-4-carboxamide]: 180 nM.
Regarding `O=C(NCc1ccc(O)c(O)c1)c1ccc(O)c2[nH]c(-c3cccs3)nc12` [Example 37, N-(3,4-Dihydroxybenzyl)-7-hydroxy-2-(thiophen-2-yl)-1H-benzo[d]imidazole-4-carboxamide], the IC50 is 38 nM.
With `O=C(NCCNS(=O)(=O)c1ccncc1)c1ccc(O)c2[nH]c(-c3cccs3)nc12` [Example 40, 7-Hydroxy-N-[2-(pyridine-4-sulfonamido)ethyl]-2-(thiophen-2-yl)-1H-benzo[d]imidazole-4-carboxamide] the figure was 390 nM; with `CC(=O)NCCNC(=O)c1ccc(O)c2[nH]c(-c3cccs3)nc12` [Example 42, N-(2-Acetamidoethyl)-7-hydroxy-2-(thiophen-2-yl)-1H-benzo[d]imidazole-4-carboxamide], 74 nM.
Next, `CC(C)NCCCNC(=O)c1ccc(O)c2[nH]c(-c3cccs3)nc12` [Example 43, N-[3-(Isopropylamino)propyl]-7-hydroxy-2-(thiophen-2-yl)-1H-benzo[d]imidazole-4-carboxamide]: 220 nM; `NC(=O)c1ccc(OCCNC(=O)c2ccc(O)c3[nH]c(-c4cccs4)nc23)nc1` [Example 49, N-[2-(5-Carbamoylpyridin-2-yloxy)ethyl]-7-hydroxy-2-(thiophen-2-yl)-1H-benzo[d]imidazole-4-carboxamide]: 73 nM; `O=C(NCCc1ncc[nH]1)c1ccc(O)c2[nH]c(-c3cccs3)nc12` [Example 62, N-[2-(1H-Imidazol-2-yl)ethyl]-7-hydroxy-2-(thiophen-2-yl)-1H-benzo[d]imidazole-4-carboxamide]: 260 nM.
With `CS(=O)(=O)Nc1ccc(NCCNC(=O)c2ccc(O)c3[nH]c(-c4cccs4)nc23)nc1` [Example 69, 7-Hydroxy-N-{2-[5-(methylsulfonamido)pyridin-2-ylamino]ethyl}-2-(thiophen-2-yl)-1H-benzo[d]imidazole-4-carboxamide] the figure was 22 nM; with `CC(=O)Nc1ccc(NCCNC(=O)c2ccc(O)c3[nH]c(-c4cccs4)nc23)nc1` [Example 70, N-[2-(5-Acetamidopyridin-2-ylamino)ethyl]-7-hydroxy-2-(thiophen-2-yl)-1H-benzo[d]imidazole-4-carboxamide], 81 nM; with `O=C(N[C@@H](Cc1cnc[nH]1)C(=O)O)c1ccc(O)c2[nH]c(-c3cccs3)nc12` [Example 71, (S)-2-[7-Hydroxy-2-(thiophen-2-yl)-1H-benzo[d]imidazole-4-carboxamido]-3-(1H-imidazol-5-yl)propanoic Acid], 340 nM.
`O=C(NCCCn1ccnc1)c1ccc(O)c2[nH]c(-c3cccs3)nc12` [Example 76, N-[3-(1H-Imidazol-1-yl)propyl]-7-hydroxy-2-(thiophen-2-yl)-1H-benzo[d]imidazole-4-carboxamide] displayed a half-inhibitory concentration (IC50) of 1.7 nM.
In turn, `O=C(NCCCC1C=NNC1=O)c1ccc(O)c2[nH]c(-c3ccco3)nc12` (stereo not drawn) [Example 79] gave an IC50 of 30 nM.
With `O=C(NCCc1ccc(O)c(O)c1)c1ccc(O)c2[nH]c(-c3ccco3)nc12` [Example 80, N-(3,4-Dihydroxyphenethyl)-2-(furan-2-yl)-7-hydroxy-1H-benzo[d]imidazole-4-carboxamide] the figure was 19 nM; with `O=C(Nc1ccc(O)cc1)c1ccc(O)c2[nH]c(C3CC3)nc12` [Example 91], 400 nM.
In turn, `Nc1ccc(CCNC(=O)c2ccc(O)c3nc(-c4ccccc4)[nH]c23)cc1` [Example 93, N-(4-Aminophenethyl)-4-hydroxy-2-phenyl-1H-benzo[d]imidazole-7-carboxamide] came in with a concentration for half-maximal inhibition (IC50) of 400 nM.
Molecule `O=C(NCC(O)CO)c1ccc(O)c2nc(C3CC3)[nH]c12` (stereo not drawn) [Example 97, 2-Cyclopropyl-N-(2,3-dihydroxypropyl)-4-hydroxy-1H-benzo[d]imidazole-7-carboxamide] displayed an IC50 of 150 nM.
With `NS(=O)(=O)c1ccc(CCNC(=O)c2ccc(O)c3nc(C4CC4)[nH]c23)cc1` [Example 101, 2-Cyclopropyl-4-hydroxy-N-(4-sulfamoylphenethyl)-1H-benzo[d]imidazole-7-carboxamide] the figure was 120 nM; with `O=C(/C=C/c1cnc[nH]1)Nc1ccc(O)c2[nH]c(-c3cccs3)nc12` [Example 120], 3000 nM.
Turning to `O=C(CCc1cnc[nH]1)Nc1ccc(O)c2[nH]c(-c3cccs3)nc12` [Example 121, N-(7-hydroxy-2-(thiophen-2-yl)-1H-benzo[d]imidazol-4-yl)-3-(1H-imidazol-5-yl)propanamide], the half-maximal inhibitory concentration (IC50) stood at 1700 nM.
`O=C(Nc1cc(O)ccc1C(=O)NC1CCCNC1)c1cccs1` (stereo not drawn) [Example 122, N-(5-hydroxy-2-(piperidin-3-ylcarbamoyl)phenyl)thiophene-2-carboxamide] returned an IC50 of 8100 nM.
